Literature values as cited in article PMC9411704, “Assessment of the Carcinogenic Potential of Pretomanid in Transgenic Tg.rasH2 Mice” (International Journal of Toxicology, 2022).

Set-up: method as in PMID 32130813
Details: 200 mg/day, clinical study NCT02333799; cited from earlier work

O=[N+]([O-])c1cn2c(n1)OC[C@@H](OCc1ccc(OC(F)(F)F)cc1)C2 [Pretomanid, (6S)-2-nitro-6-{[4-(trifluoromethoxy)benzyl]oxy}-6,7-dihydro-5H-imidazo[2,1-b][1,3]oxazine]
Human AUC0-24: 50900 ng·h/mL
